{"source": "patent US12016852B2", "about": "“Pyrrolidine glycosidase inhibitors” (Asceneuron SA, priority 2018, dated 2024)", "target": "T1, Human O-GlcNAcase (His-Tagged hOGA) (Homo sapiens, UniProt O60502)", "T1 sequence (O60502 1-916)": "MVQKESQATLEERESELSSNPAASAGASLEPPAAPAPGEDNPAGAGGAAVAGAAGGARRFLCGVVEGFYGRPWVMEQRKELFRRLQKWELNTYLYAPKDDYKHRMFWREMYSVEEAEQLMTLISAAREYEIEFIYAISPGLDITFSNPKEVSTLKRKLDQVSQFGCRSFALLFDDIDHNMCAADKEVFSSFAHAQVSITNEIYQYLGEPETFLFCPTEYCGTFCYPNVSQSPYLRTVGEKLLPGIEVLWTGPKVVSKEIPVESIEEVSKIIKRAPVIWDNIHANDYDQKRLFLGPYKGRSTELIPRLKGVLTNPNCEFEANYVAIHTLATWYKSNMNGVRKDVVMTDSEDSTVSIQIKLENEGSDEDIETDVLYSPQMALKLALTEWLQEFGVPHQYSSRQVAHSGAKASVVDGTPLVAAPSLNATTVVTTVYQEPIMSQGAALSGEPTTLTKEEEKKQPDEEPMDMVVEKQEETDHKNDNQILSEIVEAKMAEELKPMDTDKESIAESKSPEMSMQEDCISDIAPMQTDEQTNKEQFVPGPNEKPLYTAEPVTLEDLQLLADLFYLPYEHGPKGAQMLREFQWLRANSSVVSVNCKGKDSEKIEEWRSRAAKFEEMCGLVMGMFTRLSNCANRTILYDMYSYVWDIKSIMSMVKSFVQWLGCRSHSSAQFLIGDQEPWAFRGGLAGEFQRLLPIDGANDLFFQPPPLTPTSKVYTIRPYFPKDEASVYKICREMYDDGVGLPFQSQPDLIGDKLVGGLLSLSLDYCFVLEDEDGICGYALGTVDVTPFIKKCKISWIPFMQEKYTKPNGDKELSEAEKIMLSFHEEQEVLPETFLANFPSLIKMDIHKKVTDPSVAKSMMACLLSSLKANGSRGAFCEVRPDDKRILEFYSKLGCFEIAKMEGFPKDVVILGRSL", "assay": "Human O-GlcNAcase enzyme inhibition assay", "assay_type": "biochemical", "conditions": "20 nM His-Tagged hOGA, 10 μM FL-GlcNAc, McIlvaine's Buffer pH 6.5, 60 min at room temperature, fluorescence; read-out: OGA IC50", "procedure,_shortened": "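20 nM His-tagged hOGA with 10 μM fluorescein-GlcNAc substrate in McIlvaine's buffer pH 6.5, 60 min at room temperature, stopped with glycine pH 10.75. Fluorescence (485/520 nm) background-corrected using 3 uM Thiamet as full inhibition and 0.5% DMSO as no inhibition; IC50 from sigmoidal dose-response.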"}
{"smiles": "Cn1cc(-c2ccc(CN3CCCC3c3ccc4c(c3)OCC4)cn2)cn1", "note": "(racemic) [Example 12, 5-((2-(2,3-dihydrobenzofuran-6-yl)pyrrolidin-1-yl)methyl)-2-(1-methyl-1H-pyrazol-4-yl)pyridine]", "values": [{"measurement": "IC50", "value": "0.05 to 0.2", "unit": "µM"}]}
